The results in this text go back to ChEMBL document CHEMBL5360670, “Novel Dihydroorotate Dehydrogenase Inhibitors for Treating Acute Myelogenous Leukemia” (ACS Med Chem Lett, 2023).

One assay relates to MOLM-13. As to the kind of experiment: Cytotoxicity against human MOLM-13 cells assessed as reduction in cell viability incubated for 72 hrs by Celltiter-glo luminescent assay. The settings on record: MOLM-13, 72 h. Format: functional, cell-based. (In general: Cellular ATP, detected with luciferase, serves as a proxy for viable cell number.)
One may read the IC50 as the concentration that inhibits the measured activity by half. Consider `Cc1ccccc1-n1cc(C(C)C)c2cc(-c3cn(C)c([C@@H](C)O)n3)c(F)cc2c1=O`, for which the IC50 worked out at 100 pM.

Regarding `Cc1ccccc1-n1cc(C(C)C)c2cc(-c3ccc(C)c(N)n3)c(F)cc2c1=O`, the IC50 was 20 pM.

As to `Cc1ccccc1-n1cc(C(C)C)c2cc(-c3cn(C)c(C(C)(C)O)n3)c(F)cc2c1=O`, the IC50 is 80 pM.

On to `Cc1ccccc1-n1nc(C(C)C)c2cc(-c3cn(C)c(C(C)(C)O)n3)c(F)cc2c1=O`, for which the IC50 was found to be 90 pM.

On to `[2H]C([2H])([2H])n1cc(-c2cc3c(C(C)C)cn(-c4ccccc4C)c(=O)c3cc2F)nc1C(C)(C)O`, for which the IC50 was found to be 40 pM.

For `Cc1ccccc1-n1cc(C(C)C)c2cc(-c3nc(C(C)(C)O)n(C)n3)c(F)cc2c1=O`, the IC50 was 80 pM.

For the next assay, the target named is Dihydroorotate dehydrogenase (quinone), mitochondrial (Homo sapiens, UniProt Q02127). Description: Inhibition of human DHODH using dihydroorotate and CoQ6 as substrate by DCIP dye based spectrophotometry analysis.
Chain of Dihydroorotate dehydrogenase (quinone), mitochondrial (Q02127 whole entry): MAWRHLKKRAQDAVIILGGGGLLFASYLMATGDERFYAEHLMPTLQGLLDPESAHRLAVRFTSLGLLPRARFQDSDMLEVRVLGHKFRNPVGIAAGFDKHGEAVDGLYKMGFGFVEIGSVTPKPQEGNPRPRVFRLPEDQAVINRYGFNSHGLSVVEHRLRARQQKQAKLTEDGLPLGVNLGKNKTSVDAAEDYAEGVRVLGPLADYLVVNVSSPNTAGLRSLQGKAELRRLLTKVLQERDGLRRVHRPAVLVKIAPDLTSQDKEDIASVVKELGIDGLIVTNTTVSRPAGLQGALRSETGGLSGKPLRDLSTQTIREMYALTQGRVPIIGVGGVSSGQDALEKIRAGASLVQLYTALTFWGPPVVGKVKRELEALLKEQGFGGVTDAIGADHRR
Conditions: not given
The molecule `[2H]C([2H])([2H])n1cc(-c2cc3c(C(C)C)cn(-c4ccccc4C)c(=O)c3cc2F)nc1C(C)(C)O` came in with an IC50 of 540 pM.
